Data published in PubChem BioAssay AID328 (DTP/NCI, 2004).
Several values for one entry are separate records, joined by “and”; a condition that tells them apart may be missing. Equal values may be shown once. Toxic doses and inconclusive results are not listed.

System: BDF1 mice, P388 leukemia ip, median survival T/C
Experiment: NCI In Vivo Anticancer Drug Screen. Data for tumor model P388 Leukemia (intraperitoneal) in B6D2F1 (BDF1) mice
Settings: endpoint: median survival time, higher = longer survival
In short: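 Vehicle-dosed animals serve as the reference; survival of compound-dosed, tumour-implanted mice is divided by it.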

[1] = dose: 50.0 mg/kg/injection, schedule: Q04DX003 (ip), vehicle: saline
[2] = dose: 100.0 mg/kg/injection, schedule: Q04DX003 (ip), vehicle: saline
[3] = dose: 200.0 mg/kg/injection, schedule: Q04DX003 (ip), vehicle: saline
[4] = dose: 50.0 mg/kg/injection, schedule: Q01DX009 (ip), vehicle: Klucel (hydroxypropylcellulose) (HPC)
[5] = dose: 100.0 mg/kg/injection, schedule: Q01DX009 (ip), vehicle: Klucel (hydroxypropylcellulose) (HPC)
[6] = dose: 200.0 mg/kg/injection, schedule: Q01DX009 (ip), vehicle: Klucel (hydroxypropylcellulose) (HPC)
[7] = dose: 50.0 mg/kg/injection, schedule: Q01DX009 (ip), vehicle: saline with Tween-80
[8] = dose: 100.0 mg/kg/injection, schedule: Q01DX009 (ip), vehicle: saline with Tween-80
[9] = dose: 12.5 mg/kg/injection, schedule: Q01DX009 (ip), vehicle: saline with Tween-80
[10] = dose: 25.0 mg/kg/injection, schedule: Q01DX009 (ip), vehicle: saline with Tween-80
[11] = dose: 100.0 mg/kg/injection, schedule: Q01DX001 (ip), vehicle: saline with Tween-80
[12] = dose: 200.0 mg/kg/injection, schedule: Q01DX001 (ip), vehicle: saline with Tween-80
[13] = dose: 400.0 mg/kg/injection, schedule: Q01DX001 (ip), vehicle: saline with Tween-80
[14] = dose: 200.0 mg/kg/injection, schedule: Q01DX009 (ip), vehicle: saline with Tween-80

## COc1cccc2c1C(=O)c1c(O)c3c(c(O)c1C2=O)CC(O)(C(C)=O)CC3OC1CC(NC(=O)CNC(=O)CN(C)C)C(O)C(C)O1 (stereo unspecified)
dose: 1.56 mg/kg/injection, schedule: Q01DX009 (ip), vehicle: water
  T/C: 101 % of control
dose: 3.13 mg/kg/injection, schedule: Q01DX009 (ip), vehicle: water
  T/C: 92 % of control
dose: 6.25 mg/kg/injection, schedule: Q01DX009 (ip), vehicle: water
  T/C: 101 % of control
dose: 12.5 mg/kg/injection, schedule: Q01DX009 (ip), vehicle: water
  T/C: 91 % of control

## CO[C@@H](C=O)O[C@@H](C=O)CO
dose: 6.25 mg/kg/injection, schedule: Q01DX009 (ip), vehicle: saline
  T/C: 120 % of control
dose: 25.0 mg/kg/injection, schedule: Q01DX009 (ip), vehicle: saline
  T/C: 150 % of control
[1]
  T/C: 150 % of control
dose: 89.0 mg/kg/injection, schedule: Q04DX003 (ip), vehicle: saline
  T/C: 170 % of control
[2]
  T/C: 160 % of control
dose: 133.0 mg/kg/injection, schedule: Q04DX003 (ip), vehicle: saline
  T/C: 160 % of control
[3]
  T/C: 175 % of control and 180 % of control

## COc1cccc(CC(=O)C(=O)O)c1
[4]
  T/C: 95 % of control
dose: 50.0 mg/kg/injection, schedule: Q04DX003 (ip), vehicle: Klucel (hydroxypropylcellulose) (HPC)
  T/C: 100 % of control
[5]
  T/C: 104 % of control
dose: 100.0 mg/kg/injection, schedule: Q04DX003 (ip), vehicle: Klucel (hydroxypropylcellulose) (HPC)
  T/C: 115 % of control
[6]
  T/C: 90 % of control
dose: 200.0 mg/kg/injection, schedule: Q04DX003 (ip), vehicle: Klucel (hydroxypropylcellulose) (HPC)
  T/C: 110 % of control

## C[N+]1(C)N=C([O-])N(c2ccc([N+](=O)[O-])cc2)C1=O
[7]
  T/C: 90 % of control
[8]
  T/C: 99 % of control

## OCC1OC(n2cc(Cl)c3cncnc32)C(O)C1O (stereo unspecified)
[1]
  T/C: 100 % of control
[2]
  T/C: 90 % of control

## C[C@@H]1O[C@@H](O[C@H]2CC[C@]3(C=O)[C@H]4CC[C@]5(C)[C@@H](c6ccc(=O)oc6)CC[C@]5(O)[C@@H]4CC[C@]3(O)C2)[C@H](O)[C@H](O)[C@H]1O[C@@H]1O[C@H](CO)[C@@H](O)[C@H](O)[C@H]1O
dose: 0.6 mg/kg/injection, schedule: Q01DX010 (ip), vehicle: carboxymethylcellulose (CMC)
  T/C: 95 % of control
dose: 1.2 mg/kg/injection, schedule: Q01DX010 (ip), vehicle: carboxymethylcellulose (CMC)
  T/C: 104 % of control
dose: 2.5 mg/kg/injection, schedule: Q01DX010 (ip), vehicle: carboxymethylcellulose (CMC)
  T/C: 95 % of control and 120 % of control
dose: 5.0 mg/kg/injection, schedule: Q01DX010 (ip), vehicle: carboxymethylcellulose (CMC)
  T/C: 100 % of control

## CN(C)c1ccc(-c2cc(C(=O)O)c3cc4ccccc4cc3n2)cc1
[9]
  T/C: 97 % of control
[10]
  T/C: 97 % of control
[7]
  T/C: 94 % of control and 102 % of control
[8]
  T/C: 98 % of control and 104 % of control

## O=c1oc(-c2ccc(C[n+]3ccc4ccccc4c3)cc2)nc2ccccc12
dose: 50.0 mg/kg/injection, schedule: Q01DX005 (ip), vehicle: saline with Tween-80
  T/C: 100 % of control
dose: 100.0 mg/kg/injection, schedule: Q01DX005 (ip), vehicle: saline with Tween-80
  T/C: 99 % of control
dose: 200.0 mg/kg/injection, schedule: Q01DX005 (ip), vehicle: saline with Tween-80
  T/C: 104 % of control

## CC1CCCCN1O (stereo unspecified)
dose: 100.0 mg/kg/injection, schedule: Q04DX002 (ip), vehicle: saline with Tween-80
  T/C: 100 % of control
dose: 200.0 mg/kg/injection, schedule: Q04DX002 (ip), vehicle: saline with Tween-80
  T/C: 105 % of control
dose: 400.0 mg/kg/injection, schedule: Q04DX002 (ip), vehicle: saline with Tween-80
  T/C: 96 % of control

## CCOC(=O)C(=Cc1ccc(O)c(OC)c1)C(=O)OCC
[11]
  T/C: 90 % of control
[12]
  T/C: 95 % of control
[13]
  T/C: 104 % of control

## c1ccc([P+](C[P+](c2ccccc2)(c2ccccc2)c2ccccc2)(c2ccccc2)c2ccccc2)cc1
dose: 0.39 mg/kg/injection, schedule: Q01DX009 (ip), vehicle: Klucel (hydroxypropylcellulose) (HPC)
  T/C: 109 % of control
dose: 0.78 mg/kg/injection, schedule: Q01DX009 (ip), vehicle: Klucel (hydroxypropylcellulose) (HPC)
  T/C: 109 % of control
dose: 1.56 mg/kg/injection, schedule: Q01DX009 (ip), vehicle: Klucel (hydroxypropylcellulose) (HPC)
  T/C: 118 % of control
dose: 1.72 mg/kg/injection, schedule: Q04DX003 (ip), vehicle: Klucel (hydroxypropylcellulose) (HPC)
  T/C: 109 % of control
dose: 2.3 mg/kg/injection, schedule: Q01DX009 (ip), vehicle: Klucel (hydroxypropylcellulose) (HPC)
  T/C: 115 % of control
dose: 3.45 mg/kg/injection, schedule: Q04DX003 (ip), vehicle: Klucel (hydroxypropylcellulose) (HPC)
  T/C: 122 % of control
dose: 6.9 mg/kg/injection, schedule: Q04DX003 (ip), vehicle: Klucel (hydroxypropylcellulose) (HPC)
  T/C: 90 % of control

## N#CSCc1ccc(OCc2ccccc2)cc1
[7]
  T/C: 100 % of control
[8]
  T/C: 103 % of control
[14]
  T/C: 112 % of control

## C1CSCCO1.[Cu+2].[O-][Cl+3]([O-])([O-])O
dose: 6.25 mg/kg/injection, schedule: Q04DX003 (ip), vehicle: saline with Tween-80
  T/C: 97 % of control
dose: 12.5 mg/kg/injection, schedule: Q04DX003 (ip), vehicle: saline with Tween-80
  T/C: 99 % of control
dose: 25.0 mg/kg/injection, schedule: Q04DX003 (ip), vehicle: saline with Tween-80
  T/C: 108 % of control

## BrCC[N+]12CC[N+](CCBr)(CC1)C2
[9]
  T/C: 112 % of control
[10]
  T/C: 105 % of control
dose: 25.0 mg/kg/injection, schedule: Q04DX003 (ip), vehicle: water
  T/C: 110 % of control
dose: 50.0 mg/kg/injection, schedule: Q04DX003 (ip), vehicle: water
  T/C: 116 % of control
dose: 400.0 mg/kg/injection, schedule: Q04DX003 (ip), vehicle: water
  T/C: 172 % of control

## COc1cc2cnc3c4cc5c(cc4ccc3c2cc1OC)OCO5
dose: 20.0 mg/kg/injection, schedule: Q01DX009 (ip), vehicle: saline with Tween-80
  T/C: 95 % of control
dose: 40.0 mg/kg/injection, schedule: Q01DX009 (ip), vehicle: saline with Tween-80
  T/C: 105 % of control
dose: 80.0 mg/kg/injection, schedule: Q01DX009 (ip), vehicle: saline with Tween-80
  T/C: 105 % of control
dose: 120.0 mg/kg/injection, schedule: Q01DX009 (ip), vehicle: saline with Tween-80
  T/C: 95 % of control
dose: 240.0 mg/kg/injection, schedule: Q01DX009 (ip), vehicle: saline with Tween-80
  T/C: 110 % of control

## CC1(C)C(=O)C2(C(=O)O)CCC1C2 (stereo unspecified)
[8]
  T/C: 100 % of control
dose: 100.0 mg/kg/injection, schedule: Q04DX003 (ip), vehicle: saline with Tween-80
  T/C: 95 % of control
[14]
  T/C: 95 % of control
dose: 200.0 mg/kg/injection, schedule: Q04DX003 (ip), vehicle: saline with Tween-80
  T/C: 109 % of control
dose: 400.0 mg/kg/injection, schedule: Q01DX009 (ip), vehicle: saline with Tween-80
  T/C: 100 % of control
dose: 400.0 mg/kg/injection, schedule: Q04DX003 (ip), vehicle: saline with Tween-80
  T/C: 100 % of control

## NC(CCCC(=O)O)P(=O)(O)O (stereo unspecified)
[4]
  T/C: 112 % of control
[5]
  T/C: 110 % of control
[6]
  T/C: 113 % of control

## CCOC(=O)c1cc[nH]c1CC(=O)NCc1ccccc1
[11]
  T/C: 97 % of control
[12]
  T/C: 118 % of control
[13]
  T/C: 103 % of control

## Oc1c(Cl)cc(Cl)cc1C1N=NC2=C(CCCC2)N1O (stereo unspecified)
[7]
  T/C: 106 % of control
[8]
  T/C: 88 % of control
[14]
  T/C: 93 % of control

## C[Si](C)(C)C1([Si](C)(C)C)CO1
[2]
  T/C: 108 % of control
[3]
  T/C: 109 % of control
dose: 400.0 mg/kg/injection, schedule: Q04DX003 (ip), vehicle: saline
  T/C: 108 % of control

## Cc1ccc(NC2=CC(=O)C(=O)C=C2Nc2ccc(C)cc2)cc1
dose: 15.0 mg/kg/injection, schedule: Q01DX009 (ip), vehicle: saline with Tween-80
  T/C: 88 % of control
dose: 30.0 mg/kg/injection, schedule: Q01DX009 (ip), vehicle: saline with Tween-80
  T/C: 88 % of control
dose: 60.0 mg/kg/injection, schedule: Q01DX009 (ip), vehicle: saline with Tween-80
  T/C: 100 % of control

## O=[N+]([O-])c1ccc(S(=O)(=O)N/N=C\c2ccc(Cl)c(Cl)c2)cc1
[9]
  T/C: 95 % of control
[10]
  T/C: 92 % of control
[7]
  T/C: 100 % of control

## CC(C)OC(=O)Nc1ccccc1Cl
[1]
  T/C: 95 % of control
